Test results reported in ChEMBL document CHEMBL1201862, “PubChem BioAssay data set” (2004).
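Method: 48-hour compound exposure of cells in 96-well plates, five concentrations, linear interpolation of endpoints. GI50 = concentration required for 50% inhibition of growth.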 Activity calls are given as the source filed them. Rule as the data show it: active = GI50 up to about 1.1 µM and inactive = higher.

Columns and labels:
Test in all cases: NCI-60 cell line screen, 48 h
OVCAR-4 = test system: OVCAR-4
SF-295 = test system: SF-295
786-0 = test system: 786-0
RPMI-8226 = test system: RPMI-8226
MCF7 = test system: MCF7
TK-10 = test system: TK-10
UACC-257 = test system: UACC-257
NCI/ADR-RES = test system: NCI/ADR-RES
HOP-62 = test system: HOP-62
PC-3 = test system: PC-3
MOLT-4 = test system: MOLT-4
SK-MEL-28 = test system: SK-MEL-28
UACC-62 = test system: UACC-62
NCI-H23 = test system: NCI-H23
CCRF-CEM = test system: CCRF-CEM
HT-29 = test system: HT-29
BT-549 = test system: BT-549
SF-539 = test system: SF-539
UO-31 = test system: UO-31
SN12C = test system: SN12C
IGROV-1 = test system: IGROV-1
MDA-MB-435 = test system: MDA-MB-435
SK-OV-3 = test system: SK-OV-3
SW-620 = test system: SW-620
HOP-92 = test system: HOP-92
LOX IMVI = test system: LOX IMVI
U-251 = test system: U-251
MDA-MB-231 = test system: MDA-MB-231
HCC 2998 = test system: HCC 2998
SF-268 = test system: SF-268
NCI-H522 = test system: NCI-H522
CAKI-1 = test system: CAKI-1
NCI-H460 = test system: NCI-H460
SNB-75 = test system: SNB-75
RXF 393 = test system: RXF 393
Malme-3M = test system: Malme-3M
M14 = test system: M14
K562 = test system: K562
SNB-19 = test system: SNB-19
SR = test system: SR
SK-MEL-2 = test system: SK-MEL-2
OVCAR-8 = test system: OVCAR-8
HCT-15 = test system: HCT-15
DU-145 = test system: DU-145
A549 = test system: A549
COLO 205 = test system: COLO 205
SK-MEL-5 = test system: SK-MEL-5
ACHN = test system: ACHN
KM12 = test system: KM12
NCI-H226 = test system: NCI-H226
HCT-116 = test system: HCT-116
OVCAR-3 = test system: OVCAR-3
OVCAR-5 = test system: OVCAR-5
EKVX = test system: EKVX
T47D = test system: T47D
HL-60 = test system: HL-60
Hs-578T = test system: Hs-578T
A498 = test system: A498
MDA-N = test system: MDA-N

With `CCCCC(C)(C/C=C/[C@@H]1[C@@H](C(O)CCCCCC(=O)OC)C(=O)C[C@H]1O[Si](C)(C)C(C)(C)C)O[Si](C)(C)C` (some centres not stated) the GI50 (OVCAR-4) was 86.7 µM (inactive), the GI50 (SF-295) was > 100 µM (inactive) and the GI50 (786-0) was > 100 µM (inactive). The GI50 (RPMI-8226) was 31.2 µM (inactive), the GI50 (MCF7) was 42 µM (inactive) and the GI50 (TK-10) was 97.7 µM (inactive). The GI50 (UACC-257) was 62.1 µM (inactive), the GI50 (NCI/ADR-RES) was > 100 µM (inactive) and the GI50 (HOP-62) was > 100 µM (inactive). The GI50 (PC-3) was 34.9 µM (inactive), the GI50 (MOLT-4) was 19.7 µM (inactive) and the GI50 (SK-MEL-28) was 77.4 µM (inactive). For the same compound, the GI50 (UACC-62) was 91.8 µM (inactive), the GI50 (NCI-H23) was > 100 µM (inactive) and the GI50 (CCRF-CEM) was 25.8 µM (inactive). The GI50 (HT-29) was 78.5 µM (inactive), the GI50 (BT-549) was > 100 µM (inactive) and the GI50 (SF-539) was > 100 µM (inactive). The GI50 (UO-31) was 33.7 µM (inactive), the GI50 (SN12C) was > 100 µM (inactive) and the GI50 (IGROV-1) was > 100 µM (inactive). The GI50 (MDA-MB-435) was 74.3 µM (inactive), the GI50 (SK-OV-3) was > 100 µM (inactive) and the GI50 (SW-620) was 59.3 µM (inactive). The GI50 (HOP-92) was > 100 µM (inactive), the GI50 (LOX IMVI) was 45.3 µM (inactive) and the GI50 (U-251) was 57.5 µM (inactive). For the same compound, the GI50 (MDA-MB-231) was > 100 µM (inactive), the GI50 (HCC 2998) was > 100 µM (inactive) and the GI50 (SF-268) was 39.1 µM (inactive). The GI50 (NCI-H522) was 23.2 µM (inactive), the GI50 (CAKI-1) was 38.4 µM (inactive) and the GI50 (NCI-H460) was 83.4 µM (inactive). The GI50 (SNB-75) was 56.2 µM (inactive), the GI50 (RXF 393) was 54.2 µM (inactive) and the GI50 (Malme-3M) was > 100 µM (inactive). For the same compound, the GI50 (M14) was > 100 µM (inactive), the GI50 (K562) was 36.5 µM (inactive) and the GI50 (SNB-19) was > 100 µM (inactive). The GI50 (SR) was 25.3 µM (inactive), the GI50 (SK-MEL-2) was 58.7 µM (inactive) and the GI50 (OVCAR-8) was > 100 µM (inactive). The GI50 (HCT-15) was 76.2 µM, the GI50 (DU-145) was > 100 µM (inactive) and the GI50 (A549) was 70.8 µM (inactive). The GI50 (COLO 205) was > 100 µM (inactive), the GI50 (SK-MEL-5) was 92.7 µM (inactive) and the GI50 (ACHN) was 86.5 µM (inactive). For the same compound, the GI50 (KM12) was 58.3 µM (inactive), the GI50 (NCI-H226) was > 100 µM (inactive) and the GI50 (HCT-116) was 81.1 µM (inactive). For the same compound, the GI50 (OVCAR-3) was 91 µM (inactive), the GI50 (OVCAR-5) was > 100 µM (inactive) and the GI50 (EKVX) was > 100 µM (inactive).
`COC(=O)CC[N+]1([O-])CC1` was tested, and the GI50 (OVCAR-4) was > 100 µM (inactive), the GI50 (SF-295) was > 100 µM (inactive) and the GI50 (786-0) was > 100 µM (inactive). For the same compound, the GI50 (RPMI-8226) was > 100 µM (inactive), the GI50 (MCF7) was > 100 µM (inactive) and the GI50 (TK-10) was > 100 µM (inactive). The GI50 (UACC-257) was > 100 µM (inactive), the GI50 (NCI/ADR-RES) was > 100 µM (inactive) and the GI50 (HOP-62) was > 100 µM (inactive). For the same compound, the GI50 (MOLT-4) was > 100 µM (inactive), the GI50 (SK-MEL-28) was > 100 µM (inactive) and the GI50 (UACC-62) was > 100 µM (inactive). For the same compound, the GI50 (NCI-H23) was > 100 µM (inactive), the GI50 (CCRF-CEM) was > 100 µM (inactive) and the GI50 (HT-29) was > 100 µM (inactive). For the same compound, the GI50 (SF-539) was > 100 µM (inactive), the GI50 (T47D) was > 100 µM (inactive) and the GI50 (UO-31) was > 100 µM (inactive). The GI50 (SN12C) was > 100 µM (inactive), the GI50 (IGROV-1) was > 100 µM (inactive) and the GI50 (HL-60) was > 100 µM (inactive). For the same compound, the GI50 (MDA-MB-435) was > 100 µM (inactive), the GI50 (SK-OV-3) was > 100 µM (inactive) and the GI50 (SW-620) was > 100 µM (inactive). The GI50 (HOP-92) was > 100 µM (inactive), the GI50 (LOX IMVI) was > 100 µM (inactive) and the GI50 (U-251) was > 100 µM (inactive). For the same compound, the GI50 (MDA-MB-231) was > 100 µM (inactive), the GI50 (HCC 2998) was > 100 µM (inactive) and the GI50 (SF-268) was > 100 µM (inactive). The GI50 (NCI-H460) was > 100 µM (inactive), the GI50 (SNB-75) was > 100 µM (inactive) and the GI50 (RXF 393) was > 100 µM (inactive). The GI50 (Malme-3M) was > 100 µM (inactive), the GI50 (M14) was > 100 µM (inactive) and the GI50 (Hs-578T) was > 100 µM (inactive). For the same compound, the GI50 (SNB-19) was > 100 µM (inactive), the GI50 (SR) was > 100 µM (inactive) and the GI50 (OVCAR-8) was > 100 µM (inactive). For the same compound, the GI50 (HCT-15) was greater than 100 µM, the GI50 (DU-145) was > 100 µM (inactive) and the GI50 (A549) was > 100 µM (inactive). For the same compound, the GI50 (COLO 205) was > 100 µM (inactive), the GI50 (SK-MEL-5) was > 100 µM (inactive) and the GI50 (A498) was 33.2 µM (inactive). For the same compound, the GI50 (ACHN) was > 100 µM (inactive), the GI50 (KM12) was > 100 µM (inactive) and the GI50 (NCI-H226) was > 100 µM (inactive). The GI50 (HCT-116) was > 100 µM (inactive), the GI50 (OVCAR-5) was > 100 µM (inactive) and the GI50 (EKVX) was > 100 µM (inactive).
`CCO/C=N\C1=C(C#N)SC2=N/C(=C\c3ccc(OC)cc3)C(=O)N21` was tested, and the GI50 (OVCAR-4) was 15.4 µM (inactive), the GI50 (MDA-N) was > 100 µM (inactive) and the GI50 (SF-295) was 59.3 µM (inactive). The GI50 (786-0) was 40.6 µM (inactive), the GI50 (RPMI-8226) was > 100 µM (inactive) and the GI50 (MCF7) was > 100 µM (inactive). The GI50 (TK-10) was 58.2 µM (inactive), the GI50 (UACC-257) was > 100 µM (inactive) and the GI50 (NCI/ADR-RES) was > 100 µM (inactive). For the same compound, the GI50 (MOLT-4) was > 100 µM (inactive), the GI50 (SK-MEL-28) was > 100 µM (inactive) and the GI50 (NCI-H23) was > 100 µM (inactive). The GI50 (CCRF-CEM) was > 100 µM (inactive), the GI50 (HT-29) was > 100 µM (inactive) and the GI50 (SF-539) was > 100 µM (inactive). The GI50 (T47D) was > 100 µM (inactive), the GI50 (UO-31) was > 100 µM (inactive) and the GI50 (SN12C) was > 100 µM (inactive). The GI50 (IGROV-1) was 96.8 µM (inactive), the GI50 (HL-60) was 87.1 µM (inactive) and the GI50 (MDA-MB-435) was > 100 µM (inactive). The GI50 (SK-OV-3) was 96.8 µM (inactive), the GI50 (SW-620) was > 100 µM (inactive) and the GI50 (HOP-92) was > 100 µM (inactive). The GI50 (LOX IMVI) was > 100 µM (inactive), the GI50 (U-251) was 75.3 µM (inactive) and the GI50 (MDA-MB-231) was 80.5 µM (inactive). The GI50 (HCC 2998) was 39.5 µM (inactive), the GI50 (SF-268) was 45.4 µM (inactive) and the GI50 (NCI-H522) was 79.8 µM (inactive). For the same compound, the GI50 (CAKI-1) was > 100 µM (inactive), the GI50 (SNB-75) was 19.2 µM (inactive) and the GI50 (RXF 393) was 43.5 µM (inactive). The GI50 (Malme-3M) was > 100 µM (inactive), the GI50 (M14) was > 100 µM (inactive) and the GI50 (K562) was 25.9 µM (inactive). For the same compound, the GI50 (Hs-578T) was 33.7 µM (inactive), the GI50 (SNB-19) was 83.6 µM (inactive) and the GI50 (SR) was 82.8 µM (inactive). For the same compound, the GI50 (OVCAR-8) was > 100 µM (inactive), the GI50 (HCT-15) was 85.9 µM and the GI50 (DU-145) was > 100 µM (inactive). The GI50 (A549) was > 100 µM (inactive), the GI50 (COLO 205) was > 100 µM (inactive) and the GI50 (SK-MEL-5) was > 100 µM (inactive). The GI50 (A498) was > 100 µM (inactive), the GI50 (ACHN) was 94.2 µM (inactive) and the GI50 (KM12) was > 100 µM (inactive). For the same compound, the GI50 (NCI-H226) was > 100 µM (inactive), the GI50 (HCT-116) was > 100 µM (inactive) and the GI50 (OVCAR-5) was > 100 µM (inactive). For the same compound, the GI50 (EKVX) was 60.1 µM (inactive).
